In patent EP4667458A1 (Kanaph Therapeutics Inc., priority 2023, dated 2024):

The compounds below were run against T1, KRAS^G12C::SOS1 (Homo sapiens, UniProt Q07889) (assay: KRAS G12C::SOS1 protein-protein interaction (PPI) inhibition assay (HTRF binding kit)).
T1 sequence (Q07889 1-1333): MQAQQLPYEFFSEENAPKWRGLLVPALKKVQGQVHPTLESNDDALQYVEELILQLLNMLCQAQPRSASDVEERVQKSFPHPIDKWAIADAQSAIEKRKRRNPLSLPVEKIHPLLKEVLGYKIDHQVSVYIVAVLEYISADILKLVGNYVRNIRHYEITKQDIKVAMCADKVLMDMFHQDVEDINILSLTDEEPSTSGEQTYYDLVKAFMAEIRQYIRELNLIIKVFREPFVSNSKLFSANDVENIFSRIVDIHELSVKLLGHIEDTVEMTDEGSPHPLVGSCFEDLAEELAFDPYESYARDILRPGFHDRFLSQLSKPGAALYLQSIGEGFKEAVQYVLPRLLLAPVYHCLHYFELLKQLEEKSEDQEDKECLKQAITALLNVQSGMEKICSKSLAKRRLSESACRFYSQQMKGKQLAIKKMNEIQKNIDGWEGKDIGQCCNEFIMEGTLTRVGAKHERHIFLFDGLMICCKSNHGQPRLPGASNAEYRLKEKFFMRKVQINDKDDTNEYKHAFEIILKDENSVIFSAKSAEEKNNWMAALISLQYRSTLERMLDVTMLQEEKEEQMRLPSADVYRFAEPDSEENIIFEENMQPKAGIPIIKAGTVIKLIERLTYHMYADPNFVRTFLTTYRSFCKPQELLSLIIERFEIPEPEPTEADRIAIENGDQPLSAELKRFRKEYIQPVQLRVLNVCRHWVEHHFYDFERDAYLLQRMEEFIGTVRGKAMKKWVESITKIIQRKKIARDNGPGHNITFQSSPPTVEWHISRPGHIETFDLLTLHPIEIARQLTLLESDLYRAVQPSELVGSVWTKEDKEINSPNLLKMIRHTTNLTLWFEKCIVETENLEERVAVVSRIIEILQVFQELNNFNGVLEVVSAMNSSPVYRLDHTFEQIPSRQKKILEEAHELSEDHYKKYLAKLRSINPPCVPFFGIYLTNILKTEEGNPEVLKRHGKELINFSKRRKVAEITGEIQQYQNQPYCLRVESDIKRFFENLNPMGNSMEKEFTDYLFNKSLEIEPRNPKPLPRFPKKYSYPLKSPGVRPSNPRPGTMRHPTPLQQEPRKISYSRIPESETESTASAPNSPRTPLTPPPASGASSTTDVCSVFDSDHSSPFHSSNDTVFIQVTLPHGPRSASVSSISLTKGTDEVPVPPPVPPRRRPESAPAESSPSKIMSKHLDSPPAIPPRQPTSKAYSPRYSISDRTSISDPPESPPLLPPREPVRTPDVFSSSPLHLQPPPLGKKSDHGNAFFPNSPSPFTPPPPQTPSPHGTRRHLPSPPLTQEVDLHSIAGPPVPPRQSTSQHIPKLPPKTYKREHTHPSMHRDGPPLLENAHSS

Compound	IC50
C[C@@H](NC(=O)c1ccc(=O)n(-c2cccc(-c3ccn(C(F)F)n3)c2)n1)c1cccc(C(F)(F)CO)c1F [Example 345, N-[(1R)-1-[3-(1,1-difluoro-2-hydroxy-ethyl)-2-fluoro-phenyl]ethyl]-1-[3-[1-(difluoromethyl)pyrazol-3-yl]phenyl]-6-oxo-pyridazine-3-carboxamide]	< 1000 nM
C[C@@H](NC(=O)c1ccc(=O)n(-c2cccc(-c3nnnn3C)c2)n1)c1cc(N)cc(C(F)(F)F)c1 [Example 347, N-[(1R)-1-[3-amino-5-(trifluoromethyl)phenyl]ethyl]-1-[3-(1-methyltetrazol-5-yl)phenyl]-6-oxo-pyridazine-3-carboxamide]	< 1000 nM
Cc1nnn(C)c1-c1cccc(-n2nc(C(=O)N[C@H](C)c3cc(N)cc(C(F)(F)F)c3)ccc2=O)c1 [Example 350, N-[(1R)-1-[3-amino-5-(trifluoromethyl)phenyl]ethyl]-1-[3-(3,5-dimethyltriazol-4-yl)phenyl]-6-oxo-pyridazine-3-carboxamide]	< 1000 nM
C[C@@H](NC(=O)c1ccc(=O)n(-c2ccc(F)cc2F)n1)c1cccc(C(F)(F)CO)c1F [Example 352, N-[(1R)-1-[3-(1,1-difluoro-2-hydroxy-ethyl)-2-fluoro-phenyl]ethyl]-1-(2,4-difluorophenyl)-6-oxo-pyridazine-3-carboxamide]	< 1000 nM
C[C@@H](NC(=O)c1ccc(=O)n(-c2cccc(C(=O)N(C)C)c2F)n1)c1cccc(C(F)(F)CO)c1F [Example 353, N-[(1R)-1-[3-(1,1-difluoro-2-hydroxy-ethyl)-2-fluoro-phenyl]ethyl]-1-[3-(dimethylcarbamoyl)-2-fluoro-phenyl]-6-oxo-pyridazine-3-carboxamide]	< 1000 nM
C[C@@H](NC(=O)c1ccc(=O)n(-c2cccc(F)c2F)n1)c1cccc(C(F)(F)CO)c1F [Example 355, N-[(1R)-1-[3-(1,1-difluoro-2-hydroxy-ethyl)-2-fluoro-phenyl]ethyl]-1-(2,3-difluorophenyl)-6-oxo-pyridazine-3-carboxamide]	< 1000 nM
C[C@@H](NC(=O)c1ccc(=O)n(-c2cc(F)ccc2F)n1)c1cccc(C(F)(F)CO)c1F [Example 356, N-[(1R)-1-[3-(1,1-difluoro-2-hydroxy-ethyl)-2-fluoro-phenyl]ethyl]-1-(2,5-difluorophenyl)-6-oxo-pyridazine-3-carboxamide]	< 1000 nM
C[C@@H](NC(=O)c1ccc(=O)n(-c2c(F)cccc2F)n1)c1cccc(C(F)(F)CO)c1F [Example 357, N-[(1R)-1-[3-(1,1-difluoro-2-hydroxy-ethyl)-2-fluoro-phenyl]ethyl]-1-(2,6-difluorophenyl)-6-oxo-pyridazine-3-carboxamide]	1000 to 10000 nM
C[C@@H](NC(=O)c1ccc(=O)n(-c2ccncc2F)n1)c1cccc(C(F)(F)CO)c1F [Example 361, N-[(1R)-1-[3-(1,1-difluoro-2-hydroxy-ethyl)-2-fluoro-phenyl]ethyl]-1-(3-fluoro-4-pyridyl)-6-oxo-pyridazine-3-carboxamide]	< 1000 nM
C[C@@H](NC(=O)c1ccc(=O)n(-c2ccc(F)cc2F)n1)c1cc(N)cc(C(F)(F)F)c1 [Example 362, N-[(1R)-1-[3-amino-5-(trifluoromethyl)phenyl]ethyl]-1-(2,4-difluorophenyl)-6-oxo-pyridazine-3-carboxamide]	< 1000 nM
C[C@@H](NC(=O)c1nn(-c2ccccc2F)c(=O)cc1O)c1cc(N)cc(C(F)(F)F)c1 [Example 363, N-[(1R)-1-[3-amino-5-(trifluoromethyl)phenyl]ethyl]-1-(2-fluorophenyl)-4-hydroxy-6-oxo-pyridazine-3-carboxamide]	> 10000 nM
C[C@@H](NC(=O)c1nn(-c2ccccc2F)c(=O)cc1O)c1cccc(C(F)(F)CO)c1F [Example 365, N-[(1R)-1-[3-(1,1-difluoro-2-hydroxy-ethyl)-2-fluoro-phenyl]ethyl]-1-(2-fluorophenyl)-4-hydroxy-6-oxo-pyridazine-3-carboxamide]	> 10000 nM
C[C@@H](NC(=O)c1nn(-c2ccccc2)c(=O)cc1-c1ccccc1)c1cc(N)cc(C(F)(F)F)c1 [Example 368, N-[(1R)-1-[3-amino-5-(trifluoromethyl)phenyl]ethyl]-6-oxo-1,4-diphenyl-pyridazine-3-carboxamide]	< 1000 nM

Other lines, results leading:

IC50	Compound
< 1000 nM	C[C@@H](NC(=O)c1ccc(=O)n(-c2cccc(-c3ccn(C(F)F)n3)c2)n1)c1cc(N)cc(C(F)(F)F)c1 [Example 344, N-[(1R)-1-[3-amino-5-(trifluoromethyl)phenyl]ethyl]-1-[3-[1-(difluoromethyl)pyrazol-3-yl]phenyl]-6-oxo-pyridazine-3-carboxamide]
< 1000 nM	C[C@@H](NC(=O)c1ccc(=O)n(-c2cccc(-c3nncn3C)c2)c1)c1cc(N)cc(C(F)(F)F)c1 [Example 348, N-[(1R)-1-[3-amino-5-(trifluoromethyl)phenyl]ethyl]-1-[3-(4-methyl-1,2,4-triazol-3-yl)phenyl]-6-oxo-pyridine-3-carboxamide]
< 1000 nM	C[C@@H](NC(=O)c1ccc(=O)n(-c2cccc(-c3nnnn3C)c2)c1)c1cc(N)cc(C(F)(F)F)c1 [Example 349, N-[(1R)-1-[3-amino-5-(trifluoromethyl)phenyl]ethyl]-1-[3-(1-methyltetrazol-5-yl)phenyl]-6-oxo-pyridine-3-carboxamide]
< 1000 nM	C[C@@H](NC(=O)c1ccc(=O)n(-c2cccc(-c3cccc(=O)n3C)c2)n1)c1cc(N)cc(C(F)(F)F)c1 [Example 351, N-[(1R)-1-[3-amino-5-(trifluoromethyl)phenyl]ethyl]-1-[3-(1-methyl-6-oxo-2-pyridyl)phenyl]-6-oxo-pyridazine-3-carboxamide]
< 1000 nM	C[C@@H](NC(=O)c1ccc(=O)n(-c2cccc(C(=O)N(C)C)c2F)n1)c1cc(N)cc(C(F)(F)F)c1 [Example 354, N-[(1R)-1-[3-amino-5-(trifluoromethyl)phenyl]ethyl]-1-[3-(dimethylcarbamoyl)-2-fluoro-phenyl]-6-oxo-pyridazine-3-carboxamide]
< 1000 nM	C[C@@H](NC(=O)c1ccc(=O)n(-c2cccc(-c3cnnn3C)c2F)n1)c1cccc(C(F)(F)CO)c1F [Example 358, N-[(1R)-1-[3-(1,1-difluoro-2-hydroxy-ethyl)-2-fluoro-phenyl]ethyl]-1-[2-fluoro-3-(3-methyltriazol-4-yl)phenyl]-6-oxo-pyridazine-3-carboxamide]
< 1000 nM	C[C@@H](NC(=O)c1ccc(=O)n(-c2cccc(-c3cnnn3C)c2F)n1)c1cc(N)cc(C(F)(F)F)c1 [Example 359, N-[(1R)-1-[3-amino-5-(trifluoromethyl)phenyl]ethyl]-1-[2-fluoro-3-(3-methyltriazol-4-yl)phenyl]-6-oxo-pyridazine-3-carboxamide]
< 1000 nM	C[C@@H](NC(=O)c1ccc(=O)n(-c2cccnc2F)n1)c1cc(N)cc(C(F)(F)F)c1 [Example 360, N-[(1R)-1-[3-amino-5-(trifluoromethyl)phenyl]ethyl]-1-(2-fluoro-3-pyridyl)-6-oxo-pyridazine-3-carboxamide]
1000 to 10000 nM	C[C@@H](NC(=O)c1nn(-c2ccccc2F)c(=O)cc1OCc1ccccc1)c1cccc(C(F)(F)CO)c1F [Example 364, 4-benzyloxy-N-[(1R)-1-[3-(1,1-difluoro-2-hydroxy-ethyl)-2-fluorophenyl]ethyl]-1-(2-fluorophenyl)-6-oxo-pyridazine-3-carboxamide]
1000 to 10000 nM	COc1ccc(-n2nc(C(=O)N[C@H](C)c3cccc(C(F)(F)CO)c3F)c(C3CC3)cc2=O)c(F)c1 [Example 366, 4-cyclopropyl-N-[(1R)-1-[3-(1,1-difluoro-2-hydroxy-ethyl)-2-fluorophenyl]ethyl]-1-(2-fluoro-4-methoxy-phenyl)-6-oxopyridazine-3-carboxamide]
1000 to 10000 nM	COc1ccc(-n2nc(C(=O)N[C@H](C)c3cc(N)cc(C(F)(F)F)c3)c(C3CC3)cc2=O)c(F)c1 [Example 367, N-[(1R)-1-[3-amino-5-(trifluoromethyl)phenyl]ethyl]-4-cyclopropyl-1-(2-fluoro-4-methoxy-phenyl)-6-oxo-pyridazine-3-carboxamide]
